From patent US9771378B2 (Denali Therapeutics, Inc., priority 2014, dated 2017)

These compounds were tested on Aβ42 (human neuroglioma H4 cells expressing human wild type APP751) (assay: In vitro cell screening assay with sandwich ELISA quantification of Aβ42 peptide). Conditions: H4 cells stably expressing human wild type APP751; Pro293 chemically defined medium; compounds 0.003-10 μM; incubated overnight (16-18 h); supernatant Aβ42 by sandwich ELISA; normalized to DMSO and DAPT; read-out: Aβ42 H4 Prot Fre IC50.
Format: cell-based
Description: Human neuroglioma H4 cells were transfected with a pcDNA3.1 plasmid expressing human wild type APP751 cDNA and a stable cell line was generated using G418 selection. Cells are plated at 15,000 cells/well in Costar 96-well plates and placed at 37° C. and 5% CO2. Six hours after plating, cells are washed three times with Pro293™ chemically defined medium, followed by addition of compounds (0.003-10 μM, final DMSO concentration of 0.33%). Plates were incubated overnight (16-18 h) and supernatant was removed for quantification of AP peptides by sandwich ELISA. Cytotoxicity was evaluated using Cell-Titer 96W AQueous One Solution Cell Proliferation Assay according to the manufacturer's protocol.
ELISA Measurements of Aβ Peptides
Aβ peptide levels were quantified by sandwich ELISA. 96-well plates are coated with C-terminal specific Aβ antibodies recognizing either Aβ37, Aβ38, Aβ40, Aβ42, Aβ43 or a N-terminal specific Aβ antibody to detect Aβ 1-x. Plates are then blocked overnight at 4° C. with 1% bovine serum albumin (BSA) in PBS-T. Plates are washed and 100 μl of cultured cell supernatant or synthetic Aβ peptide standards and a detection antibody (4G8-HRP) are applied to the blocked plate and incubated overnight at 4° C. The next day, wells are washed before the addition […] of detection substrate (TMB peroxidase). Plates are then read for absorbance at 450 nm on a Molecular Devices SpectraMax M5e Microplate Reader.
IC50 values were calculated from values reported as percent of DMSO controls using nonlinear regression, based on a sigmoidal dose-response (variable slope) model. GraphPAD software from Prism used for calculation.

Row | SMILES | IC50 [nM]
1 | Cc1cc(-c2ccc(Nc3ncc4c(n3)N(C)C(c3ccccc3C)CO4)cc2F)ccn1 (single isomer, unassigned; (+)) [Example 32B] | 131
2 | Cc1cn(-c2ccc(Nc3ncc4c(n3)N(C)C(c3cc(F)cc(F)c3)CO4)cc2F)cn1 (single isomer, unassigned; (+)) [Example 33A] | 14
3 | Cc1cn(-c2ccc(Nc3ncc4c(n3)N(C)C(c3ccccc3C)CO4)cc2F)cn1 (single isomer, unassigned; (+)) [Example 34A] | 20
4 | COc1cc(Nc2ncc3c(n2)N(C)C(c2ccccc2C)CO3)ccc1-c1ccnc(C)c1 (single isomer, unassigned; (+)) [Example 35B] | 35
5 | Cc1cc(-c2ccc(Nc3ncc4c(n3)N(C)C(c3cc(F)c(F)c(F)c3)CO4)cc2F)ccn1 (single isomer, unassigned; (+)) [Example 36A] | 107
6 | Cc1cc(-c2ccc(Nc3ncc4c(n3)N(C)C(c3cc(F)c(F)c(F)c3)CO4)cc2)ccn1 (single isomer, unassigned; (+)) [Example 37A] | 59
7 | COc1cc(Nc2ncc3c(n2)N(C)C(c2cc(F)c(F)c(F)c2)CO3)ccc1-c1ccnc(C)c1 (single isomer, unassigned; (+)) [Example 39A] | 41
8 | COc1cc(Nc2ncc3c(n2)N(C)C(c2cc(F)c(F)c(F)c2)CO3)ccc1-n1cnc(C)c1 (single isomer, unassigned; (+)) [Example 40B] | 11
9 | Cc1cc(-c2ccc(Nc3ncc4c(n3)N(C)C(c3cc(F)cc(F)c3)CO4)cc2F)ccn1 (single isomer, unassigned; (+)) [Example 41A] | 77
10 | COc1cc(Nc2ncc3c(n2)N(C)C(c2cc(F)cc(F)c2)CO3)ccc1-c1ccnc(C)c1 (single isomer, unassigned; (+)) [Example 42A] | 36
11 | Cc1cn(-c2ccc(Nc3ncc4c(n3)N(C)C(c3ccccc3C)CO4)cc2)cn1 (single isomer, unassigned; (+)) [Example 43A] | 31
12 | COc1cc(Nc2ncc3c(n2)N(C)C(Cc2ccccc2)CO3)ccc1-n1cnc(C)c1 (single isomer, unassigned; (+)) [Example 47A] | 23
13 | COc1cc(Nc2ncc3c(n2)N(C)C(c2ccc(F)cc2F)CO3)ccc1-n1cnc(C)c1 (single isomer, unassigned; (+)) [Example 48B] | 20
14 | COc1cc(Nc2ncc3c(n2)N(C)C(c2ccc(F)cc2)CO3)ccc1-n1cnc(C)c1 (single isomer, unassigned; (+)) [Example 49B] | 9
15 | COc1cc(Nc2ncc3c(n2)N(C)C(c2ccccc2Cl)CO3)ccc1-n1cnc(C)c1 (single isomer, unassigned; (+)) [Example 51B] | 58
16 | COc1cc(Nc2ncc3c(n2)N(C)C(c2ccccc2C(F)(F)F)CO3)ccc1-n1cnc(C)c1 (single isomer, unassigned; (+)) [Example 55B] | 66
17 | Cc1cc(-c2ccc(Nc3ncc4c(n3)N(C)C(c3ccc(F)cc3)CO4)cc2F)ccn1 (single isomer, unassigned; (+)) [Example 56A] | 71
18 | Cc1cc(-c2ccc(Nc3ncc4c(n3)N(C)C(Cc3ccccc3)CO4)cc2F)ccn1 (single isomer, unassigned; (+)) [Example 57A] | 118
19 | Cc1cn(-c2ccc(Nc3ncc4c(n3)N(C)C(c3ccc(F)cc3)CO4)cc2F)cn1 (single isomer, unassigned; (+)) [Example 58A] | 28
20 | Cc1cn(-c2ccc(Nc3ncc4c(n3)N(C)C(Cc3ccccc3)CO4)cc2F)cn1 (single isomer, unassigned; (+)) [Example 59A] | 81
21 | COc1cc(Nc2ncc3c(n2)N(C)C(c2ccccc2OC(F)(F)F)CO3)ccc1-n1cnc(C)c1 (single isomer, unassigned; (+)) [Example 60B] | 78
22 | COc1cc(Nc2ncc3c(n2)N(C)C(c2ccc(F)cc2)CO3)ccc1-c1ccnc(C)c1 (single isomer, unassigned; (+)) [Example 61B] | 58
23 | COc1cc(Nc2ncc3c(n2)N(C)C(c2ccccc2OC(F)(F)F)CO3)ccc1-c1ccnc(C)c1 (single isomer, unassigned; (+)) [Example 62B] | 165
24 | COc1cc(Nc2ncc3c(n2)N(C)C(c2ccc(F)cc2F)CO3)ccc1-c1ccnc(C)c1 (single isomer, unassigned; (+)) [Example 63B] | 64
25 | Cc1cn(-c2ccc(Nc3ncc4c(n3)N(C)C(c3ccccc3OC(F)(F)F)CO4)cc2F)cn1 (single isomer, unassigned; (+)) [Example 64A] | 402

Row | SMILES | IC50 [nM]
26 | Cc1cc(-c2ccc(Nc3ncc4c(n3)N(C)C(c3ccc(F)cc3F)CO4)cc2F)ccn1 (single isomer, unassigned; (+)) [Example 66A] | 488
27 | Cc1cn(-c2ccc(Nc3ncc4c(n3)N(C)C(c3ccccc3Cl)CO4)cc2F)cn1 (single isomer, unassigned; (+)) [Example 67A] | 124
28 | COc1cc(Nc2ncc3c(n2)N(C)C(Cc2ccccc2)CO3)ccc1-c1ccnc(C)c1 (single isomer, unassigned; (+)) [Example 68A] | 50
29 | Cc1cn(-c2ccc(Nc3ncc4c(n3)N(C)C(c3ccc(F)cc3F)CO4)cc2F)cn1 (single isomer, unassigned; (+)) [Example 69A] | 69
30 | COc1cc(Nc2ncc3c(n2)N(C)C(c2ccccc2C(F)(F)F)CO3)ccc1-c1ccnc(C)c1 (single isomer, unassigned; (+)) [Example 70B] | 151
31 | Cc1cn(-c2ccc(Nc3ncc4c(n3)N(C)C(c3ccccc3C(F)(F)F)CO4)cc2F)cn1 (single isomer, unassigned; (+)) [Example 84A] | 203
32 | COc1cc(Nc2ncc3c(n2)N(C)C(c2ccccc2Cl)CO3)ccc1-c1ccnc(C)c1 (single isomer, unassigned; (+)) [Example 85B] | 130
33 | COc1cc(Nc2ncc3c(n2)N(C)C(c2cc(C(F)(F)F)ccc2Cl)CO3)ccc1-n1cnc(C)c1 (single isomer, unassigned; (+)) [Example 88A] | 37
34 | COc1cc(Nc2ncc3c(n2)N(C)C(c2ccc(F)cc2Cl)CO3)ccc1-n1cnc(C)c1 (single isomer, unassigned; (+)) [Example 93B] | 32
35 | COc1cc(Nc2ncc3c(n2)N(C)C(c2ccc(F)cc2C(F)(F)F)CO3)ccc1-n1cnc(C)c1 (single isomer, unassigned; (+)) [Example 94B] | 29
36 | COc1cc(Nc2ncc3c(n2)N(C)C(c2ccc(Cl)cc2Cl)CO3)ccc1-n1cnc(C)c1 (single isomer, unassigned; (+)) [Example 95B] | 15
37 | Cc1cn(-c2ccc(Nc3ncc4c(n3)N(C)C(c3ccc(Cl)cc3Cl)CO4)cc2F)cn1 (single isomer, unassigned; (+)) [Example 96A] | 76
38 | COc1cc(Nc2ncc3c(n2)N(C)C(c2cc(F)c(F)cc2F)CO3)ccc1-n1cnc(C)c1 (single isomer, unassigned; (+)) [Example 97B] | 13
39 | Cc1cn(-c2ccc(Nc3ncc4c(n3)N(C)C(c3cc(F)c(F)cc3F)CO4)cc2F)cn1 (single isomer, unassigned; (+)) [Example 98A] | 20
40 | Cc1cn(-c2ccc(Nc3ncc4c(n3)N(C)C(c3ccc(F)cc3C(F)(F)F)CO4)cc2F)cn1 (single isomer, unassigned; (+)) [Example 99A] | 206
41 | Cc1cn(-c2ccc(Nc3ncc4c(n3)N(C)C(c3cc(Cl)ccc3C(F)(F)F)CO4)cc2F)cn1 (single isomer, unassigned; (+)) [Example 100A] | 101
42 | Cc1cn(-c2ccc(Nc3ncc4c(n3)N(C)C(c3ccc(F)cc3Cl)CO4)cc2F)cn1 (single isomer, unassigned; (+)) [Example 101A] | 75
43 | Cc1cc(-c2ccc(Nc3ncc4c(n3)N(C)C(c3ccc(F)cc3Cl)CO4)cc2F)ccn1 (single isomer, unassigned; (+)) [Example 102A] | 415
44 | COc1cc(Nc2ncc3c(n2)N(C)C(c2cc(F)c(F)cc2Cl)CO3)ccc1-n1cnc(C)c1 (single isomer, unassigned; (+)) [Example 103A] | 19
45 | Cc1cn(-c2ccc(Nc3ncc4c(n3)N(C)C(c3cc(F)ccc3C(F)(F)F)CO4)cc2F)cn1 (single isomer, unassigned; (+)) [Example 104B] | 77
46 | COc1cc(Nc2ncc3c(n2)N(C)C(c2cc(F)ccc2C(F)(F)F)CO3)ccc1-n1cnc(C)c1 (single isomer, unassigned; (+)) [Example 105B] | 51
47 | Cc1cn(-c2ccc(Nc3ncc4c(n3)N(C)C(c3ccc(Cl)cc3C(F)(F)F)CO4)cc2F)cn1 (single isomer, unassigned; (+)) [Example 106A] | 154
48 | COc1cc(Nc2ncc3c(n2)N(C)C(c2ccc(Cl)cc2C(F)(F)F)CO3)ccc1-c1ccnc(C)c1 (single isomer, unassigned; (+)) [Example 107B] | 174
49 | Cc1cn(-c2ccc(Nc3ncc4c(n3)N(C)C(C)CO4)cc2F)cn1 (single isomer, unassigned; (+)) [Example 108B] | 108
